Measurements published in US12410220B2, “Modulation of mammalian cell lineage by synthetic immodulins” (priority 2021, dated 2025).
Marks after values point to notes of the source that are not given here. Peptide text beside a SMILES is read from it.

Assays:
[1] = target: T1, PPAR-gamma (Homo sapiens, UniProt P37231); assay: Experiment 4B binding to full length PPAR-gamma; settings: 400 ng/well protein; 800 ng/well SA488-labelled peptide, 2 hours
T1 construct: 400 ng/well full length RXR-alpha, RXR-beta, RXR-gamma or PPAR-gamma; purchased Abcam, Cambridge, MA
T1 sequence (P37231 1-505): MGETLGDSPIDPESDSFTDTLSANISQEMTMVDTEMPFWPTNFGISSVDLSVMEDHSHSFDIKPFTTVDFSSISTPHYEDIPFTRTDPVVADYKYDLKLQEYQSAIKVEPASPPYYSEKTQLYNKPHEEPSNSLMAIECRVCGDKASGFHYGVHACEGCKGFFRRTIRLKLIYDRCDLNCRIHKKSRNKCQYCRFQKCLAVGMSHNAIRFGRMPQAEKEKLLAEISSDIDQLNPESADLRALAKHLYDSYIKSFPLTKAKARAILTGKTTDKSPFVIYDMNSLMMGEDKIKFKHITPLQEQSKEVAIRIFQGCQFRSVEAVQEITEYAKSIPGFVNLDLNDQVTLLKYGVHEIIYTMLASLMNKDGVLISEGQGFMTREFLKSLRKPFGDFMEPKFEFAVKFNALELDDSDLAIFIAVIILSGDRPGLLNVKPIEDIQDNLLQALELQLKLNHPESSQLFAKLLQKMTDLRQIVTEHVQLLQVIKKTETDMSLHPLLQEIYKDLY
Experimental: (§1) Experiment 4B. Binding of immodulin peptides to RXR isoforms and domains. 100 ng/well recombinant human RXRa-DBD or RXRa-LBD, or 400 ng/well full length RXR-alpha, RXR-beta, RXR-gamma or PPAR-gamma (Abcam, Cambridge, MA) was adsorbed to wells of a 96-well plate for 60 minutes at room temperature, then blocked with 200 uL 1% BSA in PBS buffer overnight. The plate was washed with PBS and 800 ng/well Streptavidin-Alexa 488 conjugate (SA488)-labelled peptide was added. The plate was incubated for 2 hours at room temperature, washed and counted in a fluorometer (excitation/emission 485/525 nm). Significant binding above background is also shown (**p<0.05). […] When tested against domains of RXR-alpha, these peptides bind the DNA-binding domain (DBD) better than the ligand-binding domain (LBD).

[2] = target: T2, RXR-alpha LBD (Homo sapiens, UniProt P19793); assay: Experiment 4B binding to RXR-alpha LBD; settings: 100 ng/well protein; 800 ng/well SA488-labelled peptide, 2 hours
T2 construct: purchased Abcam, Cambridge, MA
T2 sequence (P19793 227-458 limits assumed): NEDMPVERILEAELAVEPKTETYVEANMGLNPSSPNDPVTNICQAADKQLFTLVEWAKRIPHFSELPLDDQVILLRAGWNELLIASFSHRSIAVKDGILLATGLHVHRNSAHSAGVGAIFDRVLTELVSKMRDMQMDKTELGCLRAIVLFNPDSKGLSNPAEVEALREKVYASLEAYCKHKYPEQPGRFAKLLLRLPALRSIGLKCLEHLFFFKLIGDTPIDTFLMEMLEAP
Experimental: as §1

[3] = tested on: HFF-1 human fibroblast cell line; assay: Collagen-1 ELISA in HFF-1 dermal fibroblasts; assay type: cell-based; settings: peptide 2 uM, 72 hour incubation
Experimental: Immodulin peptides have potential untility in the field of cosmetics. HFF-1 human fibroblast cell line was obtained from the American Type Culture Collection (ATCC). Cells were grown in a T-75 flask in DMEM Medium containing 10% fetal bovine serum and penicillin-streptomycin at 37° C. in a humidified, 5% CO2 incubator. Cells (100 µl, 2,000 cells/well) were plated in a 96-well plate and incubated overnight at 37° C. in a humidified, 5% CO2 incubator. Next day, 10 µl/well of compounds were added (quadruplicate wells). After 72 hour incubation with the compound, supernatants were collected for Collagen-1 ELISA assay and cell viability was measured in a luminometer after the addition of 100 IL/well CellTiterGlo reagent (Promega Inc, Madison, WI) as recommended by the manufacturer. Collagen stimulating activity of immodulin peptides in HFF-1 dermal fibroblasts: Peptides were added to cells at 2 uM. COL1 immunoreactivity was measured in the supernatants of cultured cells by ELISA using a rabbit monoclonal anti-COL1 primary antibody (Abcam, Cambridge, MA). Control (buffer) value of immunoreactivity was set to 100.

[4] = target: T3, RXR-alpha (Homo sapiens, UniProt P19793); assay: Experiment 4B binding to full length RXR-alpha; settings: 400 ng/well protein; 800 ng/well SA488-labelled peptide, 2 hours
T3 construct: 400 ng/well full length RXR-alpha, RXR-beta, RXR-gamma or PPAR-gamma; purchased Abcam, Cambridge, MA
T3 sequence (P19793 1-462): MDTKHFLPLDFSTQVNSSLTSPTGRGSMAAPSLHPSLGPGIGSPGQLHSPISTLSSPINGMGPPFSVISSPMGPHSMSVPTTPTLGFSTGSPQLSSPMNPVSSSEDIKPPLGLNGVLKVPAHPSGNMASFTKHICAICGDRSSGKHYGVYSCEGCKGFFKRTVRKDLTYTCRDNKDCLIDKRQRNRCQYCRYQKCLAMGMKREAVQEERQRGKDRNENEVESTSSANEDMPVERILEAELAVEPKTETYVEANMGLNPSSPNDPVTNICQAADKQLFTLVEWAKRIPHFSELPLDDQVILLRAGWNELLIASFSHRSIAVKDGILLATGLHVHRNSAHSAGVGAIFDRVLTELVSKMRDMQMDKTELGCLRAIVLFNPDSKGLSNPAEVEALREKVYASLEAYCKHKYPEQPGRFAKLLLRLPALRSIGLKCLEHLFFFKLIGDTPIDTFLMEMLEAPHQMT
Experimental: as §1

[5] = target: T4, Nur77 (NR4A1) (Homo sapiens, UniProt P22736); assay: Experiment 4C binding to full-length Nur77; settings: 400 ng/well Nur77; 333 ng/well SA488-labelled peptide, 60 min; background subtracted
T4 construct: purchased Abcam Inc, Cambridge, MA
T4 sequence (P22736 whole entry): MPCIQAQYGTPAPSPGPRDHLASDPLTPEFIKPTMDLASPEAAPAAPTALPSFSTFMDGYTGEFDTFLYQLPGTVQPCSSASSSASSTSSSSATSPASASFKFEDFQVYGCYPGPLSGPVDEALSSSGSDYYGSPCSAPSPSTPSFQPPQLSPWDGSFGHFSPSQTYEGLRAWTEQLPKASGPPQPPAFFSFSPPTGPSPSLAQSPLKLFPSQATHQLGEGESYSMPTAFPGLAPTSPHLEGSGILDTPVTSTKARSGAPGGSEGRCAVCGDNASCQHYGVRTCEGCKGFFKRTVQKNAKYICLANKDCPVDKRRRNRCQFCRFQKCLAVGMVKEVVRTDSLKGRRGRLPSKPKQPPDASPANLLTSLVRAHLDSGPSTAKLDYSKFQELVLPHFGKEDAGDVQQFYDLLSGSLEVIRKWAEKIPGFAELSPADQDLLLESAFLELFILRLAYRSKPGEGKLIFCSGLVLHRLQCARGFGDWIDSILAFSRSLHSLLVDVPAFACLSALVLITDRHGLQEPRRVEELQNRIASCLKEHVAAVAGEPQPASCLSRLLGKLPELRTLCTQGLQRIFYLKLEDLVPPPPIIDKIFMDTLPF
Experimental: 400 ng/well recombinant human Nur77 protein (NR4A1) purchased from Abcam Inc, Cambridge, MA, was adsorbed to wells of a 96-well plate for 90 minutes at room temperature, then blocked with 200 uL 1% BSA in PBS buffer overnight. The plate was washed with PBS and then 333 ng/well Streptavidin-Alexa 488 conjugate (SA488)-labelled imm3 or imm4 peptide was added. The plate was incubated for 60 min at room temperature, washed and counted in a standard fluorometer (excitation/emission 485/525 nm). Background (buffer alone) was subtracted.

Binding to PPAR-gamma relative to imm3 binding (=100) [1] | Binding to RXR-alpha LBD relative to imm3 binding (=100) [2] | Binding to RXR-alpha relative to imm3 binding to RXR-gamma (=100) [4] | Binding to Nur77 (NR4A1), normalized to imm3 binding=100 [5] | SMILES | COL1 immunoreactivity in supernatants, control (buffer) set to 100 [3]
1.6 ± 0.4 | 1.8 ± 1.9 | 17.2 ± 0.3** |  | CC[C@H](C)[C@H](NC(=O)CNC(=O)[C@H](CCCNC(=N)N)NC(=O)[C@H](CCCCN)NC(=O)[C@H](CCCNC(=N)N)NC(=O)CNC(=O)[C@H](CCCNC(=N)N)NC(=O)[C@H](CO)NC(=O)[C@@H]1CCCN1C(=O)[C@H](CCCCN)NC(=O)[C@H](CS)NC(=O)[C@H](CCC(N)=O)NC(=O)[C@H](CCCCN)NC(=O)[C@H](CCCNC(=N)N)NC(=O)[C@H](CCCCN)NC(=O)[C@H](Cc1ccc(O)cc1)NC(=O)[C@H](Cc1ccccc1)NC(=O)CNC(=O)[C@H](CCCCN)NC(=O)[C@@H](N)CCCNC(=N)N)C(=O)N[C@@H](CS)C(=O)N[C@@H](Cc1c[nH]c2ccccc12)C(=O)O [imm5] (H-RKGFYKRKQCKPSRGRKRGICW-OH; N-terminus and C-terminus assumed) | 93
0.1 ± 0.0 | 3.0 ± 1.3 | 3.6 ± 1.3 | 0.3 ± 8.9 | CC(C)C[C@H](NC(=O)[C@H](C)NC(=O)[C@@H]1CCCN1C(=O)[C@H](Cc1c[nH]cn1)NC(=O)[C@H](CS)NC(=O)[C@H](CCC(N)=O)NC(=O)[C@H](CCCCN)NC(=O)[C@@H]1CCCN1C(=O)[C@H](Cc1c[nH]cn1)NC(=O)[C@H](Cc1ccccc1)NC(=O)[C@H](CC(N)=O)NC(=O)CNC(=O)[C@H](CC(N)=O)NC(=O)[C@@H](N)CCCNC(=N)N)C(=O)N[C@@H](CC(=O)O)C(=O)NCC(=O)N[C@@H](CCC(N)=O)C(=O)N[C@@H](CCCNC(=N)N)C(=O)NCC(=O)N[C@@H](CCCCN)C(=O)N[C@@H](CS)C(=O)N[C@@H](Cc1c[nH]c2ccccc12)C(=O)O [imm4] (H-RNGNFHPKQCHPALDGQRGKCW-OH; N-terminus and C-terminus assumed) | 105
6.8 ± 2.0 | 1.6 ± 1.4 | 12.9 ± 0.5** |  | N=C(N)NCCC[C@H](NC(=O)[C@H](CCCNC(=N)N)NC(=O)[C@H](CCC(N)=O)NC(=O)CNC(=O)[C@H](CCC(N)=O)NC(=O)[C@H](CO)NC(=O)[C@H](CO)NC(=O)[C@H](CCCNC(=N)N)NC(=O)[C@H](CS)NC(=O)[C@H](CCC(N)=O)NC(=O)[C@H](CCCNC(=N)N)NC(=O)[C@H](CCCCN)NC(=O)[C@H](CCCNC(=N)N)NC(=O)[C@H](Cc1ccc(O)cc1)NC(=O)[C@H](Cc1ccccc1)NC(=O)CNC(=O)[C@H](CCCNC(=N)N)NC(=O)[C@@H](N)Cc1c[nH]cn1)C(=O)NCC(=O)N1CCC[C@H]1C(=O)N[C@@H](CS)C(=O)N[C@@H](Cc1c[nH]c2ccccc12)C(=O)O [imm6] (H-HRGFYRKRQCRSSQGQRRGPCW-OH; N-terminus and C-terminus assumed) | 112
2.1 ± 1.4 | 0.6 ± 1.5 | 11.2 ± 1.0** | 100.0 ± 9.3 | N=C(N)NCCC[C@H](NC(=O)CNC(=O)[C@H](CCCCN)NC(=O)[C@H](CO)NC(=O)[C@@H]1CCCN1C(=O)[C@H](CCCNC(=N)N)NC(=O)[C@H](CS)NC(=O)[C@H](CCC(N)=O)NC(=O)[C@H](CCCCN)NC(=O)[C@H](CCCCN)NC(=O)[C@H](CCCCN)NC(=O)[C@H](Cc1ccc(O)cc1)NC(=O)[C@H](Cc1ccccc1)NC(=O)CNC(=O)[C@H](CCCCN)NC(=O)[C@@H](N)CCCCN)C(=O)N[C@@H](CCCCN)C(=O)N[C@@H](CCCNC(=N)N)C(=O)NCC(=O)N[C@@H](Cc1ccccc1)C(=O)N[C@@H](CS)C(=O)N[C@@H](Cc1c[nH]c2ccccc12)C(=O)O [imm3] (H-KKGFYKKKQCRPSKGRKRGFCW-OH; N-terminus and C-terminus assumed) | 101
